Measured values: ChEMBL document CHEMBL1147423, “Synthesis and antifungal activities of phenylenedithioureas” (2004)
Values after ≈ are worked out from the molar mass of the structure shown.

Legend:
[1] = system: Aspergillus niger; test: Minimum inhibitory concentration against Aspergillus niger; format: functional
[2] = system: Aspergillus flavus; test: Minimum inhibitory concentration against Aspergillus flavus; format: functional
[3] = system: Candida albicans; test: Minimum inhibitory concentration against Candida albicans ATCC 10231; format: functional
[4] = system: Escherichia coli; test: Minimum inhibitory concentration against Escherichia coli ATCC 25853; format: functional
[5] = system: Paraphyton cookei; test: Minimum inhibitory concentration against Microsporum cookei; format: functional
[6] = system: Nannizzia gypsea; test: Minimum inhibitory concentration Microsporum gypseum; format: functional
[7] = system: Nannizzia nana; test: Minimum inhibitory concentration against Microsporum nanum; format: functional
[8] = system: Pseudomonas aeruginosa; test: Minimum inhibitory concentration against Pseudomonas aeruginosae ATCC 27853; format: functional
[9] = system: Arthroderma uncinatum; test: Minimum inhibitory concentration against Trichophyton ajelloi; format: functional
[10] = system: Staphylococcus aureus; test: Minimum inhibitory concentration Staphylococcus aureus ATCC 29213; format: functional
[11] = system: Trichophyton benhamiae; test: Minimum inhibitory concentration against Trichophyton mentagrophytes; format: functional, Arthroderma benhamiae
[12] = system: Enterococcus faecalis; test: Minimum inhibitory concentration against Streptococcus faecalis ATCC 29212; format: functional

Structure (SMILES) | MIC [1] [µg/mL] | MIC [2] [µg/mL] | MIC [3] [µg/mL] | MIC [4] [µg/mL] | MIC [5] [µg/mL] | MIC [6] [µg/mL] | MIC [7] [µg/mL] | MIC [8] [µg/mL] | MIC [9] [µg/mL] | MIC [10] [µg/mL] | MIC [11] [µg/mL] | MIC [12] [µg/mL]
COC(=O)c1ccc(/N=C(\S)Nc2cccc(/N=C(/S)Nc3ccc(C(=O)OC)c(O)c3)c2)cc1O | ≥ 512 | ≥ 512 | 512 (≈ 972 µM) | 512 (≈ 972 µM) | 32 (≈ 60.8 µM) | 64 (≈ 122 µM) | 32 (≈ 60.8 µM) | > 512 | 128 (≈ 243 µM) | 256 (≈ 486 µM) | 64 (≈ 122 µM) | > 512
O=C(O)c1ccc(/N=C(\S)Nc2ccc(/N=C(/S)Nc3ccc(C(=O)O)c(O)c3)cc2)cc1O | ≥ 512 | ≥ 512 | 256 (≈ 513 µM) | > 512 | 128 (≈ 257 µM) | 128 (≈ 257 µM) | 64 (≈ 128 µM) | 512 (≈ 1030 µM) | 128 (≈ 257 µM) | > 512 | 128 (≈ 257 µM) | 512 (≈ 1030 µM)
CCOC(=O)c1ccc(/N=C(\S)Nc2cccc(/N=C(/S)Nc3ccc(C(=O)OCC)c(O)c3)c2)cc1O | ≥ 512 | ≥ 512 | > 512 | 512 (≈ 923 µM) | 64 (≈ 115 µM) | 32 (≈ 57.7 µM) | 32 (≈ 57.7 µM) | > 512 | 32 (≈ 57.7 µM) | 256 (≈ 462 µM) | 32 (≈ 57.7 µM) | > 512
CCOC(=O)c1ccc(/N=C(\S)Nc2ccc(/N=C(/S)Nc3ccc(C(=O)OCC)c(O)c3)cc2)cc1O | ≥ 512 | ≥ 512 | > 512 | > 512 | 256 (≈ 462 µM) | 256 (≈ 462 µM) | 128 (≈ 231 µM) | 512 (≈ 923 µM) | > 512 | > 512 | > 512 | 512 (≈ 923 µM)
O=C(O)c1ccc(/N=C(\S)Nc2cccc(/N=C(/S)Nc3ccc(C(=O)O)c(O)c3)c2)cc1O | ≥ 512 | ≥ 512 | > 512 | 512 (≈ 1030 µM) | 8 (≈ 16 µM) | 64 (≈ 128 µM) | 64 (≈ 128 µM) | > 512 | 32 (≈ 64.2 µM) | 256 (≈ 513 µM) | 32 (≈ 64.2 µM) | > 512
O=C(NNc1ccccc1)c1ccc(NC(=S)Nc2ccc(NC(=S)Nc3ccc(C(=O)NNc4ccccc4)cc3)cc2)cc1 | ≥ 512 | ≥ 512 | > 512 | 512 (≈ 792 µM) | 16 (≈ 24.7 µM) | 64 (≈ 98.9 µM) | 8 (≈ 12.4 µM) | 512 (≈ 792 µM) | 128 (≈ 198 µM) | 128 (≈ 198 µM) | 16 (≈ 24.7 µM) | 512 (≈ 792 µM)
O=C(O)c1ccc(N/C(S)=N\c2ccccc2/N=C(/S)Nc2ccc(C(=O)O)cc2)cc1 | ≥ 512 | ≥ 512 | > 512 | > 512 | 32 (≈ 68.6 µM) | 32 (≈ 68.6 µM) | 16 (≈ 34.3 µM) | 512 (≈ 1100 µM) | 16 (≈ 34.3 µM) | > 512 | 32 (≈ 68.6 µM) | 512 (≈ 1100 µM)
O=C(NNc1ccccc1)c1ccc(/N=C(\S)Nc2ccc(/N=C(/S)Nc3ccc(C(=O)NNc4ccccc4)c(O)c3)cc2)cc1O | ≥ 512 | ≥ 512 | 512 (≈ 754 µM) | 512 (≈ 754 µM) | 64 (≈ 94.3 µM) | 128 (≈ 189 µM) | 64 (≈ 94.3 µM) | 512 (≈ 754 µM) | 32 (≈ 47.1 µM) | 512 (≈ 754 µM) | 32 (≈ 47.1 µM) | 512 (≈ 754 µM)
O=C(O)c1ccc(N/C(S)=N\c2ccccc2/N=C(/S)Nc2ccc(C(=O)O)c(O)c2)cc1O | ≥ 512 | ≥ 512 | 512 (≈ 1030 µM) | > 512 | 32 (≈ 64.2 µM) | 16 (≈ 32.1 µM) | 32 (≈ 64.2 µM) | 512 (≈ 1030 µM) | 32 (≈ 64.2 µM) | > 512 | 8 (≈ 16 µM) | 512 (≈ 1030 µM)
O=C(N[C@H](CO)[C@H](O)c1ccc([N+](=O)[O-])cc1)C(Cl)Cl [CHLORAMPHENICOL] | ≥ 512 | ≥ 512 | – | – | – | – | – | 512 (≈ 1580 µM) | – | 128 (≈ 396 µM) | – | –
CC(=O)N1CCN(c2ccc(OC[C@H]3CO[C@](Cn4ccnc4)(c4ccc(Cl)cc4Cl)O3)cc2)CC1 [KETOCONAZOLE] | ≥ 512 | ≥ 512 | 128 (≈ 241 µM) | – | 8 (≈ 15.1 µM) | 16 (≈ 30.1 µM) | 16 (≈ 30.1 µM) | – | 16 (≈ 30.1 µM) | – | 16 (≈ 30.1 µM) | –

More lines, now with the values ahead:

MIC [1] [µg/mL] | MIC [2] [µg/mL] | MIC [3] [µg/mL] | MIC [4] [µg/mL] | MIC [5] [µg/mL] | MIC [6] [µg/mL] | MIC [7] [µg/mL] | MIC [8] [µg/mL] | MIC [9] [µg/mL] | MIC [10] [µg/mL] | MIC [11] [µg/mL] | MIC [12] [µg/mL] | Structure (SMILES)
≥ 512 | ≥ 512 | > 512 | > 512 | 128 (≈ 245 µM) | > 512 | 128 (≈ 245 µM) | 512 (≈ 980 µM) | 256 (≈ 490 µM) | > 512 | 512 (≈ 980 µM) | 512 (≈ 980 µM) | CCOC(=O)c1ccc(/N=C(\S)Nc2ccc(/N=C(\S)Nc3ccc(C(=O)OCC)cc3)cc2)cc1
≥ 512 | ≥ 512 | > 512 | > 512 | 32 (≈ 68.6 µM) | 64 (≈ 137 µM) | 64 (≈ 137 µM) | 512 (≈ 1100 µM) | 64 (≈ 137 µM) | 256 (≈ 549 µM) | 64 (≈ 137 µM) | 512 (≈ 1100 µM) | O=C(O)c1ccc(/N=C(\S)Nc2cccc(/N=C(/S)Nc3ccc(C(=O)O)cc3)c2)cc1
≥ 512 | ≥ 512 | > 512 | > 512 | 128 (≈ 220 µM) | 256 (≈ 439 µM) | 128 (≈ 220 µM) | 512 (≈ 879 µM) | 128 (≈ 220 µM) | > 512 | > 512 | 512 (≈ 879 µM) | CC(C)OC(=O)c1ccc(/N=C(\S)Nc2ccc(/N=C(/S)Nc3ccc(C(=O)OC(C)C)c(O)c3)cc2)cc1O
≥ 512 | ≥ 512 | > 512 | > 512 | 64 (≈ 122 µM) | 16 (≈ 30.4 µM) | 32 (≈ 60.8 µM) | 512 (≈ 972 µM) | 32 (≈ 60.8 µM) | > 512 | 64 (≈ 122 µM) | 512 (≈ 972 µM) | COC(=O)c1ccc(/N=C(\S)Nc2ccc(/N=C(/S)Nc3ccc(C(=O)OC)c(O)c3)cc2)cc1O
≥ 512 | ≥ 512 | > 512 | > 512 | 64 (≈ 116 µM) | 32 (≈ 58.1 µM) | 64 (≈ 116 µM) | 512 (≈ 930 µM) | 64 (≈ 116 µM) | > 512 | 64 (≈ 116 µM) | 512 (≈ 930 µM) | CC(C)OC(=O)c1ccc(/N=C(\S)Nc2ccc(/N=C(\S)Nc3ccc(C(=O)OC(C)C)cc3)cc2)cc1
≥ 512 | ≥ 512 | > 512 | > 512 | 128 (≈ 259 µM) | 256 (≈ 518 µM) | 32 (≈ 64.7 µM) | 512 (≈ 1040 µM) | 128 (≈ 259 µM) | > 512 | 32 (≈ 64.7 µM) | 512 (≈ 1040 µM) | COC(=O)c1ccc(/N=C(\S)Nc2ccc(/N=C(\S)Nc3ccc(C(=O)OC)cc3)cc2)cc1
≥ 512 | ≥ 512 | > 512 | 512 (≈ 879 µM) | 32 (≈ 54.9 µM) | 32 (≈ 54.9 µM) | 32 (≈ 54.9 µM) | > 512 | 32 (≈ 54.9 µM) | 256 (≈ 439 µM) | 16 (≈ 27.5 µM) | > 512 | CC(C)OC(=O)c1ccc(/N=C(\S)Nc2cccc(/N=C(/S)Nc3ccc(C(=O)OC(C)C)c(O)c3)c2)cc1O
≥ 512 | ≥ 512 | > 512 | 512 (≈ 980 µM) | 256 (≈ 490 µM) | 64 (≈ 122 µM) | 256 (≈ 490 µM) | > 512 | 256 (≈ 490 µM) | 512 (≈ 980 µM) | 64 (≈ 122 µM) | > 512 | CCOC(=O)c1ccc(/N=C(\S)Nc2cccc(/N=C(/S)Nc3ccc(C(=O)OCC)cc3)c2)cc1
≥ 512 | ≥ 512 | 512 (≈ 1100 µM) | > 512 | 128 (≈ 274 µM) | 32 (≈ 68.6 µM) | 128 (≈ 274 µM) | 512 (≈ 1100 µM) | 128 (≈ 274 µM) | > 512 | 32 (≈ 68.6 µM) | 512 (≈ 1100 µM) | O=C(O)c1ccc(/N=C(\S)Nc2ccc(/N=C(\S)Nc3ccc(C(=O)O)cc3)cc2)cc1
≥ 512 | ≥ 512 | > 512 | 512 (≈ 930 µM) | 16 (≈ 29.1 µM) | 64 (≈ 116 µM) | 8 (≈ 14.5 µM) | > 512 | 64 (≈ 116 µM) | 512 (≈ 930 µM) | 32 (≈ 58.1 µM) | > 512 | CC(C)OC(=O)c1ccc(/N=C(\S)Nc2cccc(/N=C(/S)Nc3ccc(C(=O)OC(C)C)cc3)c2)cc1
≥ 512 | ≥ 512 | > 512 | 512 (≈ 1040 µM) | 64 (≈ 129 µM) | 128 (≈ 259 µM) | 128 (≈ 259 µM) | > 512 | 64 (≈ 129 µM) | 512 (≈ 1040 µM) | 64 (≈ 129 µM) | > 512 | COC(=O)c1ccc(/N=C(\S)Nc2cccc(/N=C(/S)Nc3ccc(C(=O)OC)cc3)c2)cc1
